Key:
[1] = tested on: Bacillus cereus (MTCC2128); experiment: Agar well diffusion antibacterial activity; type: cell-based; conditions: for Zone of inhibition, Bacillus cereus: 100 μl, compound 1 mg mL^−1, radius of inhibition zone; for inhibitory activity against Bacillus cereus (in words): 1 mg mL^−1
[2] = tested on: Escherichia coli (MTCC2412); experiment: Agar well diffusion antibacterial activity; type: cell-based; conditions: for Zone of inhibition, Escherichia coli: compound 1 mg mL^−1, radius of inhibition zone
Staphylococcus = conditions: at the concentration tested; cited from earlier work
Enterococcus faecium = conditions: at the concentration tested; cited from earlier work
Acinetobacter baumannii = conditions: cited from earlier work

Nc1ncnc2c1cnn2C=C1CC1(CO)CO [10a (E&Z), (2-((4-amino-1H-pyrazolo[3,4-d]pyrimidin-1-yl)methylene)cyclopropane-1,1-diyl) dimethanol]
Zone of inhibition, Bacillus cereus ([1]; listed as 10a): 2.2 ± 0.25 mm
Zone of inhibition, Escherichia coli ([2]; 100 μl, listed as 10a): 1.2 ± 0.15 mm

Nc1ncnc2c1cnn2C=C1CC1(CO)CO [10a (E-Isomer), (2-((4-amino-1H-pyrazolo[3,4-d]pyrimidin-1-yl)methylene)cyclopropane-1,1-diyl) dimethanol]
inhibitory activity against Bacillus cereus (in words) [1]: showed inhibitory activity
zone of inhibition against Escherichia coli (in words) ([2]; 1 mg mL^−1): zone of inhibition was observed
Zone of inhibition, Escherichia coli ([2]; 75 μl): 0.9 ± 0.05 mm

Nc1ncnc2c1cnn2C=C1CC1(CO)CO [10a (Z-Isomer), (2-((4-amino-1H-pyrazolo[3,4-d]pyrimidin-1-yl)methylene)cyclopropane-1,1-diyl) dimethanol]
Zone of inhibition, Escherichia coli ([2]; 75 μl): 0.9 ± 0.05 mm
Zone of inhibition, Escherichia coli ([2]; 100 μl): 1.2 ± 0.15 mm

Nc1ncnc2c1c(I)nn2C=C1CC1(CO)CO [10b (E&Z), (2-((4-amino-3-iodo-1H-pyrazolo[3,4-d]pyrimidin-1-yl)methylene)cyclopropane-1,1-diyl)dimethanol]
inhibitory activity against Bacillus cereus (in words) [1]: showed inhibitory activity
Zone of inhibition, Bacillus cereus ([1]; listed as 10b): 1.4 ± 0.1 mm

Nc1ncnc2c1c(I)nn2C=C1CC1(CO)CO [10b (Z-Isomer), (2-((4-amino-3-iodo-1H-pyrazolo[3,4-d]pyrimidin-1-yl)methylene)cyclopropane-1,1-diyl)dimethanol]
Zone of inhibition, Bacillus cereus [1]: 2.2 ± 0.25 mm

Nc1ncnc2c1c(-c1ccc(Oc3ccccc3)cc1)nn2C=C1CC1(CO)CO [10c (E&Z), (2-((4-amino-3-(4-phenoxyphenyl)-1H-pyrazolo[3,4-d]pyrimidin-1-yl)methylene)cyclopropane-1,1-diyl) dimethanol]
inhibitory activity against Bacillus cereus (in words) [1]: showed inhibitory activity

CC(C)=CCCC1(C)C(CC=C(C)C)CC23CCC(C)(C)OC2=C(C(=O)c2ccc(O)c(O)c2)C(=O)C1(CC=C(C)C)C3=O (centres unmarked) [schomburgkianone I]
inhibitory effect on Staphylococcus (in words) (Staphylococcus): exhibited inhibitory effects
inhibitory effect on Enterococcus faecium (in words) (Enterococcus faecium): exhibited inhibitory effects
activity against Acinetobacter baumannii (in words) (Acinetobacter baumannii): no activity

Source: PMC10955399 (RSC Advances, 2024)
